Patent publication US11472838B2, “Inhibitors of blood coagulation factor XIII” (Zedira GmbH, priority 2018, dated 2022)
Where two headings read alike, the source gives them in different places. *1 amine or outer side, *2 acyl side, *3 side chain or, on linkers, in order; H or OH if unused. Where a SMILES comes first, the peptide text is derived from it. [ ]: non-standard residue; d: D form. The star is where a group is joined. ξ: configuration not given here. Benzoyl(3-COOH,5-NO2) = O=C(O)c1cc(C(=O)*)cc([N+](=O)[O-])c1; Pro(3R,4S-CMe2) = CC1(C)[C@@H]2[C@@H](C(=O)O)NC[C@@H]21; Benzoyl(2-COOH-4,5-Cl2) = O=C(O)c1cc(Cl)c(Cl)cc1C(=O)*; Pro(3S,4R-(CH2)3) = O=C(O)[C@H]1NC[C@@H]2CCC[C@@H]21; Isonicotinoyl(3-COOH) = O=C(O)c1cnccc1C(=O)*; X1 = COC(=O)/C=C/CC[C@H](N[*:1])C(=O)[*:2]; X5 = CNC(=O)/C=C/CC[C@H](N[*:1])C(=O)[*:2]; X8 = NC(=O)/C=C/CC[C@H](N[*:1])C(=O)[*:2]; Pro(4-methylene) = C=C1CN[C@H](C(=O)O)C1; Morpholine(3S-CO) = O=C(O)[C@@H]1COCCN1; X3 = O=C(c1cnc(O)c([N+](=O)[O-])c1)*; Pro(4-oxo) = O=C1CN[C@H](C(=O)O)C1; Ala(cPr) = N[C@@H](CC1CC1)C(=O)O; Ile(3ξ) = CCC(C)[C@H](N)C(=O)O; Thr(3ξ) = CC(O)[C@H](N)C(=O)O; Chg = N[C@H](C(=O)O)C1CCCCC1; Tle = CC(C)(C)[C@H](N)C(=O)O; αMeP = C[C@@]1(C(=O)O)CCCN1; X6 = Cc1cccc(C)c1OCC(C)N*; Nle = CCCC[C@H](N)C(=O)O; ξV = CC(C)C(N)C(=O)O; Alloc = C=CCOC(=O)*

Tests used:
[1] = target: FXIII (Homo sapiens (Human), UniProt P00488); assay: Inhibitory activity against FXIII (isopeptidase assay), Tables 3 and 4; type: biochemical;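 also: FXIIIa activity read with a peptide substrate derived from the α2-antiplasmin N-terminal dodecapeptide, FXIII activated beforehand at room temperature, inhibitor-free wells with DMSO buffer as control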
Method: (§1) FXIIIa activity has been determined using substrate A101 (Zedira GmbH, Darmstadt, Germany), which is based on the N-terminal dodecapeptide of α2-antipiasmin.
(§2) The mixture was incubated for 20 min at room temperature to activate FXIII. […] For measurements without inhibitor, 15 μL of assay buffer/2% (v/v) DMSO were added. All measurements were performed in triplicate. The respective IC50 values were calculated by non-linear regression using the MARS software package (BMG Labtech).

[2] = target: TG2 (Homo sapiens (Human), UniProt P21980); assay: Inhibitory activity against TG2 (isopeptidase assay), Tables 3 and 4; type: biochemical; conditions: for Selectivity: TG2 versus FXIII
Method: as §1, §2

[3] = test system: whole human blood; assay: Thromboelastometry (ROTEM) in whole human blood with t-PA; type: cell-based
Method: Clotting time (CT), clot formation time (CFT), maximum clot firmness (MCF) and lysis index at 60 min (LI60) were obtained using fresh whole blood in the ROTEM® delta device according to the manufacturer's instructions.

[4] = Stability of compounds in plasma (HPLC); conditions: for half-life / recovery in plasma determined by HPLC: plasma; for recovery in plasma determined by HPLC: 37° C., over a period of 2 hours
Method: Further, the stability of compounds in plasma was determined as prerequisite for drug-likeness. Briefly, after spiking the chemical entities, the plasma was incubated at 37° C. At certain time points (e.g. at 15 and 120 minutes), 3 vol. cold MeOH were added to extract the compounds. After centrifugation, the supernatant was analyzed by HPLC. The half life was calculated based on the respective calibration curve.

[5] = isopeptidase assay, Table 3, read-out: IC50 [nM] FXIII
[6] = isopeptidase assay, Table 3, read-out: IC50 [nM] TG2

Sequence of TG2 (P21980 whole entry): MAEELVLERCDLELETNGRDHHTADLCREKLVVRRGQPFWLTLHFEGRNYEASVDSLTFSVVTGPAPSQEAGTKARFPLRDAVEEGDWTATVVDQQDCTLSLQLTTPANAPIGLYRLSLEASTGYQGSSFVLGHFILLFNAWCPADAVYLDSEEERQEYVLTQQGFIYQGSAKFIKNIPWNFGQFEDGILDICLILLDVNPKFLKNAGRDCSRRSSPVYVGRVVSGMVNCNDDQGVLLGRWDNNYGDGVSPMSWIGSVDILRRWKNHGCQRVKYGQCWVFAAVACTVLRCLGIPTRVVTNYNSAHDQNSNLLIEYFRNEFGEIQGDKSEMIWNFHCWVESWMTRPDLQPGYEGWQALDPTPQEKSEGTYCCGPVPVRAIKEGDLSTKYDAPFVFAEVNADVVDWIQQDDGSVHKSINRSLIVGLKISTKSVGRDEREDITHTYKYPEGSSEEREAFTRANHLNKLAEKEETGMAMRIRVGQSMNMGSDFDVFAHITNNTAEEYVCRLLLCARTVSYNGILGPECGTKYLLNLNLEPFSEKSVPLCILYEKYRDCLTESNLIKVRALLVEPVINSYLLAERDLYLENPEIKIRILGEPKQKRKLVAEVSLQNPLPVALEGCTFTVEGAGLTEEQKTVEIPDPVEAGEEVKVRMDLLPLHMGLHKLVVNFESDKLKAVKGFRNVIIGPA
Sequence of FXIII (P00488 39-732): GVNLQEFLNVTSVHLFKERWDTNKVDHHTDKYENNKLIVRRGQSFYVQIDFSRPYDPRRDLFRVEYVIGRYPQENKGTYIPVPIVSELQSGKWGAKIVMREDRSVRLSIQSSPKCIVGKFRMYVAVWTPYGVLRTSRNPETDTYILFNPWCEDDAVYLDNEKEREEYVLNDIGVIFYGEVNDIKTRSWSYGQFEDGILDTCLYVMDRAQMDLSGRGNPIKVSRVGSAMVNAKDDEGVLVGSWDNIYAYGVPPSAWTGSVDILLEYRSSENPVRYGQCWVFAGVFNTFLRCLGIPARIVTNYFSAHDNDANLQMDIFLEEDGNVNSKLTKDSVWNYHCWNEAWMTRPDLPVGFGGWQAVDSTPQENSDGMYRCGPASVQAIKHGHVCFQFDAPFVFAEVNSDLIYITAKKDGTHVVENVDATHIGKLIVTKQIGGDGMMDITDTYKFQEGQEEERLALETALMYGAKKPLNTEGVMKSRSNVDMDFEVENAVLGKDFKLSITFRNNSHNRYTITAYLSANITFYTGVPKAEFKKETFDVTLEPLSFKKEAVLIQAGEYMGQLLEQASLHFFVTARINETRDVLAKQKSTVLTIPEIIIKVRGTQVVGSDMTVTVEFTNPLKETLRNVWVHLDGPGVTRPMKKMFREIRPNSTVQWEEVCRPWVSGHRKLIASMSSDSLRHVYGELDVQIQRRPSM

SMILES | IC50 ([1]; Table 4, read-out: FXIII IC50) [nM] | Selectivity ([2]; Table 4) | IC50 ([2]; Table 4, read-out: TG2 IC50) [nM] | increase in clot lysis at 60 minutes compared to control (LI60c) [3] [%] | recovery at 2 h [4] [%] | half-life [4] [min] | IC50 [1, 5] [nM] | Selectivity ([2]; isopeptidase assay, Table 3) | IC50 [2, 6] [nM] | recovery in plasma determined by HPLC [4] [%]
C=C1C[C@@H](C(=O)N[C@@H](CC(C)C)C(=O)N2CCC[C@H]2C(=O)O)N(C(=O)[C@@H](NC(=O)[C@H](CC/C=C/C(=O)OC)NC(=O)c2cc(C(=O)O)cc([N+](=O)[O-])c2)C(C)(C)C)C1 [Compound 43] ({Benzoyl(3-COOH,5-NO2)}-[X1][Tle][Pro(4-methylene)]LP-OH) | 158 | 5.42 | 856 | 14 | > 75 | – | – | – | – | –
COC(=O)/C=C/CC[C@H](NC(=O)[C@@H]1CC(=O)CN1)C(=O)N[C@@H](CC1CC1)C(=O)N1CCOC[C@H]1C(=O)N[C@@H](CC(C)C)C(=O)N1CCC[C@H]1C(=O)O [Compound 44] (H-[Pro(4-oxo)][X1][Ala(cPr)][Morpholine(3S-CO)]LP-OH) | 141 | 5.66 | 798 | 11 | > 75 | – | – | – | – | –
C=CCOC(=O)NCCCC[C@H](NC(=O)[C@H](CC(C)C)NC(=O)[C@H](CC(C)C)NC(=O)[C@@H](NC(=O)[C@H](CC(C)C)NC(=O)[C@@H]1CCCN1C(=O)[C@H](CO)NC(=O)C(NC(=O)[C@H](CCC(N)=O)NC(=O)[C@H](CCC(=O)O)NC(=O)[C@H](CC/C=C/C(=O)OC)NC(=O)[C@H](CC(N)=O)NC(C)=O)C(C)C)C(C)O)C(=O)O (stereo partly drawn) [Ref. 24, reference compound] (Ac-N[X1]EQ[ξV]SPL[Thr(3ξ)]LLK(Alloc)-OH) | 306 | 0.55 | 169 | – | – | < 15 | – | – | – | –
COC(=O)/C=C/CC[C@H](NC(=O)c1cc(C(=O)O)cc([N+](=O)[O-])c1)C(=O)N[C@H](C(=O)N1CC(=O)C[C@H]1C(=O)N[C@H](C(=O)N[C@H](C(N)=O)C1CCCCC1)C1CCCCC1)C(C)(C)C [Compound 4] ({Benzoyl(3-COOH,5-NO2)}-[X1][Tle][Pro(4-oxo)][Chg][Chg]-NH2) | – | – | – | – | > 75 | – | 13 | 1.1 | 14 | –
CCCC[C@H](NC(=O)[C@H](CC/C=C/C(=O)OC)NC(=O)[C@@H]1CC(=O)CN1)C(=O)N[C@H](C(=O)N[C@@H](CC(C)C)C(=O)N1CCC[C@H]1C(=O)N[C@@H](Cc1c[nH]c2ccccc12)C(=O)O)C(C)CC (stereo partly drawn) [Ref. 15, reference compound] (H-[Pro(4-oxo)][X1][Nle][Ile(3ξ)]LPW-OH) | 226 | 0.52 | 117 | – | – | < 15 | – | – | – | –
COC(=O)/C=C/CC[C@H](NC(=O)[C@H](CC(N)=O)NC(C)=O)C(=O)N[C@@H](CCC(=O)O)C(=O)N[C@@H](CCC(N)=O)C(=O)N[C@H](C(=O)N[C@@H](CO)C(=O)N1CCC[C@H]1C(=O)N[C@@H](CC(C)C)C(=O)N[C@H](C(=O)N[C@@H](CC(C)C)C(=O)N[C@@H](CC(C)C)C(=O)O)C(C)O)C(C)C (stereo partly drawn) [Ref. 18, reference compound] (Ac-N[X1]EQVSPL[Thr(3ξ)]LL-OH) | 995 | 0.34 | 341 | – | – | < 15 | – | – | – | –
CCCC[C@H](NC(=O)[C@H](CC/C=C/C(=O)OC)NC(=O)[C@@H](CC(=O)O)NC(C)=O)C(=O)N[C@@H](CCCC)C(=O)N[C@@H](CC(C)C)C(=O)N1CCC[C@H]1C(=O)N[C@@H](Cc1c[nH]c2ccccc12)C(=O)N1CCC[C@H]1C(=O)O [Ref. 22, reference compound] (Ac-[dD][X1][Nle][Nle]LPWP-OH) | 110 | 26.54 | 2920 | – | – | < 15 | – | – | – | –
CNC(=O)[C@@H](NC(=O)[C@@H](NC(=O)[C@@H]1CC(=O)CN1C(=O)[C@@H](NC(=O)[C@H](CC/C=C/C(=O)OC)NC(=O)c1ccncc1C(=O)O)C(C)(C)C)C1CCCCC1)C1CCCCC1 [36a/b] ({Isonicotinoyl(3-COOH)}-[X1][Tle][Pro(4-oxo)][Chg][Chg]-NHMe) | – | – | – | – | – | – | 41 | 4.1 | 168 | > 75
COC(=O)/C=C/CC[C@H](NC(=O)c1cnc(O)c([N+](=O)[O-])c1)C(=O)N[C@H](C(=O)N1C[C@@H]2CCC[C@@H]2[C@H]1C(=O)N[C@H](C(=O)N[C@H](C(N)=O)C1CCCCC1)C1CCCCC1)C(C)(C)C [Compound 28] (X3-[X1][Tle][Pro(3S,4R-(CH2)3)][Chg][Chg]-NH2) | – | – | – | – | > 75 | – | 36 | 1.1 | 41 | –
COC(=O)/C=C/CC[C@H](NC(=O)c1cnc(O)c([N+](=O)[O-])c1)C(=O)N[C@H](C(=O)N1CC(=O)C[C@H]1C(=O)N[C@H](C(=O)N[C@H](C(N)=O)C1CCCCC1)C1CCCCC1)C(C)(C)C [Compound 6] (X3-[X1][Tle][Pro(4-oxo)][Chg][Chg]-NH2) | – | – | – | – | > 75 | – | 17 | 0.7 | 12 | –
COC(=O)/C=C/CC[C@H](NC(=O)c1cc(Cl)c(Cl)cc1C(=O)O)C(=O)N[C@H](C(=O)N1C[C@H]2[C@@H]([C@H]1C(=O)N[C@H](C(=O)N[C@H](C(N)=O)C1CCCCC1)C1CCCCC1)C2(C)C)C(C)(C)C [Compound 29] ({Benzoyl(2-COOH-4,5-Cl2)}-[X1][Tle][Pro(3R,4S-CMe2)][Chg][Chg]-NH2) | – | – | – | – | > 75 | – | 24 | 1.3 | 32 | –
CCCC[C@H](NC(=O)[C@H](CC/C=C/C(=O)OC)NC(=O)[C@@H](CC(=O)O)NC(C)=O)C(=O)N[C@@H](CCCC)C(=O)N[C@@H](CC(C)C)C(=O)N1CCC[C@H]1C(=O)N[C@@H](Cc1c[nH]c2ccccc12)C(=O)O [Ref. 13, reference compound] (Ac-[dD][X1][Nle][Nle]LPW-OH) | 465 | 6.02 | 2800 | – | – | < 15 | – | – | – | –
CC(C)(C)[C@H](NC(=O)[C@H](CC/C=C/C(N)=O)NC(=O)c1ccncc1C(=O)O)C(=O)N1CC(=O)C[C@H]1C(=O)N[C@H](C(=O)N[C@H](C(N)=O)C1CCCCC1)C1CCCCC1 [15a/b] ({Isonicotinoyl(3-COOH)}-[X8][Tle][Pro(4-oxo)][Chg][Chg]-NH2) | – | – | – | – | – | – | 69 | 7.0 | 483 | > 75
COC(=O)/C=C/CC[C@H](NC(=O)c1ccncc1C(=O)O)C(=O)N[C@H](C(=O)N1CC(=O)C[C@H]1C(=O)N[C@H](C(=O)N[C@H](C(=O)O)C1CCCCC1)C1CCCCC1)C(C)(C)C [34a/b] ({Isonicotinoyl(3-COOH)}-[X1][Tle][Pro(4-oxo)][Chg][Chg]-OH) | – | – | – | – | – | – | 123 | 2.7 | 356 | > 75
COC(=O)/C=C/CC[C@H](NC(=O)c1cc(C(=O)O)cc([N+](=O)[O-])c1)C(=O)N[C@H](C(=O)N1CC(=O)C[C@H]1C(=O)N[C@@H](CC(C)C)C(=O)N1CCC[C@@]1(C)C(=O)NC(C)COc1c(C)cccc1C)C(C)(C)C (stereo partly drawn) [Compound 30] ({Benzoyl(3-COOH,5-NO2)}-[X1][Tle][Pro(4-oxo)]L[αMeP]-X6) | – | – | – | – | > 75 | – | 15 | 1.1 | – | –
CCCC[C@H](NC(=O)[C@H](CC/C=C/C(=O)OC)NC(=O)[C@@H]1CC(=O)CN1)C(=O)N[C@H](C(=O)N[C@@H](CC(C)C)C(=O)N1CCC[C@H]1C(=O)O)C(C)CC (stereo partly drawn) [Ref. 16, reference compound] (H-[Pro(4-oxo)][X1][Nle][Ile(3ξ)]LP-OH) | > 10 | – | 196 | – | – | < 15 | – | – | – | –
CNC(=O)/C=C/CC[C@H](NC(=O)c1ccncc1C(=O)O)C(=O)N[C@H](C(=O)N1CC(=O)C[C@H]1C(=O)N[C@H](C(=O)N[C@H](C(N)=O)C1CCCCC1)C1CCCCC1)C(C)(C)C [17a/b] ({Isonicotinoyl(3-COOH)}-[X5][Tle][Pro(4-oxo)][Chg][Chg]-NH2) | – | – | – | – | – | – | 41 | 7.2 | 295 | > 75
COC(=O)/C=C/CC[C@H](NC(=O)c1ccncc1C(=O)O)C(=O)N[C@H](C(=O)N1CC(=O)C[C@H]1C(=O)N[C@H](C(=O)N[C@H](C(=O)OC)C1CCCCC1)C1CCCCC1)C(C)(C)C [35a/b] ({Isonicotinoyl(3-COOH)}-[X1][Tle][Pro(4-oxo)][Chg][Chg]-OMe) | – | – | – | – | – | – | 86 | 2.3 | 198 | > 75
